Here are results for 32 compounds from US20210114983A1, “Cathepsin C inhibitors” (National Institute of Biological Sciences, Beijing, priority 2018, published 2021).

Sequence of rhCatC (Cathepsin C) (P53634 25-134 limits assumed): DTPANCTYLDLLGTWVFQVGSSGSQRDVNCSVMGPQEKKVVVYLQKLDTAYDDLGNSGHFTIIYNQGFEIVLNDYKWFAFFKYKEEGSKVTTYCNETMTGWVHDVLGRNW
Sequence of rhCatC (Cathepsin C) (P53634 231-394 limits assumed): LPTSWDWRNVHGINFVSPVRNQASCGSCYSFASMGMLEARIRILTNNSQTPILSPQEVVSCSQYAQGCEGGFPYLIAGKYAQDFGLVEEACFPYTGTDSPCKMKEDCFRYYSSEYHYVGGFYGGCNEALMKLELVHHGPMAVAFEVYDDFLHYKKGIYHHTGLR
Sequence of rhCatC (Cathepsin C) (P53634 395-463 limits assumed): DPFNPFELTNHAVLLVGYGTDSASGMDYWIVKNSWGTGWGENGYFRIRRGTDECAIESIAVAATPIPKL

The target in this test is rhCatC (Cathepsin C) (Homo sapiens, UniProt P53634). Nature of the test: In Vitro CatC Enzyme Assay. The following applies: read-out: Cat C Enzy (Cathepsin C inhibitory activity, IC50). It counts as biochemical. How it is done:
In Vitro CatC Enzyme Assay
The CatC enzyme assay was performed in black 384-well plate. Firstly, rhCatC (440 nM) was activated by rhCatL (300 nM) in activation buffer (25 mM MES, 5 mM DTT, pH 6.0) at room temperature for 2 h and then activated rhCatC was diluted to 4.4 nM in assay buffer (25 mM MES, 50 mM NaCl, 5 mM DTT, 0.01% (v/v) Triton X100, pH 6.0), 14 μL activated rhCatC and 1 μL compound in 10% DMSO or 10% DMSO were incubated at room temperature for 3 h, and 5 μL substrate (Gly-Phe-AFC) was added to final concentration of 100 μM. After 60 min reaction, the product of the reaction was measured in the Enspire plate reader using Ex λ400 nm and Em λ505 nm for AFC. A standard irreversible CatC inhibitor 10 by AstraZeneca (J. Med. Chem. 2014, 57, 2357-2367) was used as an inhibitor control in the assay.
One may read the IC50 as the concentration that inhibits the measured activity by half. On to `C/C=C/C(=O)Nc1cccc(Oc2nc(Nc3ccc(N4CCNCC4)cc3)ccc2Cl)c1` [Compound 8], for which the IC50 was in the range of 0.3 to 30 µM.

Take `C=CC(=O)Nc1ccc(C)c(Oc2nc(Nc3ccc(N4CCN(C)CC4)cc3OC)ccc2N2CCCC2)c1` [Compound 42, N-(3-((6-((2-methoxy-4-(4-methylpiperazin-1-yl)phenyl)amino)-3-(pyrrolidin-1-yl)pyridin-2-yl)oxy)-4-methylphenyl)acrylamide]: the IC50 was 0.3 to 30 µM.

`C=CC(=O)Nc1cc(Oc2nc(Nc3ccc(N4CCN(C)CC4)cc3OC)ccc2N2CCCC2)ccc1C` [Compound 29, N-(5-((6-((2-methoxy-4-(4-methylpiperazin-1-yl)phenyl)amino)-3-(pyrrolidin-1-yl)pyridin-2-yl)oxy)-2-methylphenyl)acrylamide]: the IC50 is 0.003 to 0.3 µM.

For the compound `C=CC(=O)Nc1cc(Oc2nc(Nc3ccc(N4CCN(C)CC4)cc3OC)ccc2N2CCOCC2)ccc1C` [Compound 30, N-(5-((6-((2-methoxy-4-(4-methylpiperazin-1-yl)phenyl)amino)-3-morpholinopyridin-2-yl)oxy)-2-methylphenyl)acrylamide], the IC50 was 0.003 to 0.3 µM.

For the compound `C=CC(=O)Nc1cc(Oc2nc(Nc3ccc(N4CCN(C)CC4)cc3OC)ccc2-c2ccccc2)ccc1C` [Compound 34, N-(5-((6-((2-methoxy-4-(4-methylpiperazin-1-yl)phenyl)amino)-3-phenylpyridin-2-yl)oxy)-2-methylphenyl)acrylamide], the IC50 lay in the range of 0.003 to 0.3 µM.

With `C=CC(=O)Nc1cccc(Oc2nc(Nc3ccc(N4CCN(CC5CCCC5)CC4)cc3)ccc2Cl)c1` [Compound 15, N-(3-((3-chloro-6-((4-(4-(cyclopentylmethyl)piperazin-1-yl)phenyl)amino)pyridin-2-yl)oxy)phenyl)acrylamide], the IC50 lay within 0.3 to 30 µM.

On to `C=CC(=O)Nc1cc(Oc2nc(Nc3ccc(N4CCN(C)CC4)cc3OC)ccc2N2CCN(C)CC2)ccc1C` [Compound 33, N-(5-((6-((2-methoxy-4-(4-methylpiperazin-1-yl)phenyl)amino)-3-(4-methylpiperazin-1-yl)pyridin-2-yl)oxy)-2-methylphenyl)acrylamide], for which the IC50 was in the range of 0.003 to 0.3 µM.

As to `C#Cc1ccc(Nc2ccc(N3CCN(C)CC3)cc2OC)nc1Oc1cccc(NC(=O)C=C)c1` [Compound 23, N-(3-((3-ethynyl-6-((2-methoxy-4-(4-methylpiperazin-1-yl)phenyl)amino)pyridin-2-yl)oxy)phenyl)acrylamide], the IC50 is 0.3 to 30 µM.

Take `C=CC(=O)Nc1cccc(Oc2nc(Nc3ccc(N4CCN(C)CC4)cc3OC)ccc2C(F)(F)F)c1` [Compound 16, N-(3-((6-((2-methoxy-4-(4-methylpiperazin-1-yl)phenyl)amino)-3-(trifluoromethyl)pyridin-2-yl)oxy)phenyl)acrylamide]: the IC50 lay in the range of 0.3 to 30 µM.

On to `C#CC(=O)Nc1cc(Oc2nc(Nc3ccc(N4CCN(C)CC4)cc3OC)ccc2N2CCCCC2)ccc1C` [Compound 48, N-(5-((6-((2-methoxy-4-(4-methylpiperazin-1-yl)phenyl)amino)-3-(piperidin-1-yl)pyridin-2-yl)oxy)-2-methylphenyl)propiolamide], for which the IC50 fell in the range of 0.003 to 0.3 µM.

On to `COc1cc(N2CCN(C)CC2)ccc1Nc1ccc(Cl)c(Oc2cccc(NC(=O)C=C(C)C)c2)n1` [Compound 12, N-(3-((3-chloro-6-((2-methoxy-4-(4-methylpiperazin-1-yl)phenyl)amino)pyridin-2-yl)oxy)phenyl)-3-methylbut-2-enamide], for which the IC50 is 0.3 to 30 µM.

For the compound `C=CC(=O)Nc1cccc(N(C)c2cccc(Nc3ccc(N4CCN(C)CC4)cc3OC)n2)c1` [Compound 24, N-(3-((6-((2-methoxy-4-(4-methylpiperazin-1-yl)phenyl)amino)pyridin-2-yl)(methyl)amino)phenyl)acrylamide], the IC50 is 0.3 to 30 µM.

`C=CC(=O)Nc1cccc(Oc2nc(Nc3ccc(N4CCN(C)CC4)cc3OC)ccc2N2CCCC2)c1C` [Compound 41, N-(3-((6-((2-methoxy-4-(4-methylpiperazin-1-yl)phenyl)amino)-3-(pyrrolidin-1-yl)pyridin-2-yl)oxy)-2-methylphenyl)acrylamide]: the IC50 was 0.3 to 30 µM.

For `C=CC(=O)Nc1cc(Oc2nc(Nc3ccc(N4CCC(N(C)C)CC4)cn3)ccc2N2CCCCC2)ccc1C` [Compound 55], the IC50 was 0.3 to 30 µM.

Consider `C=CC(=O)Nc1cccc(Oc2nc(Nc3ccc(CCN)cc3)ccc2Cl)c1` [Compound 10, N-(3-((6-((4-(2-aminoethyl)phenyl)amino)-3-chloropyridin-2-yl)oxy)phenyl)acrylamide], for which the IC50 was 0.3 to 30 µM.

Take `C=CC(=O)Nc1cccc(Oc2nc(Nc3ccc(N4CCN(CC5CC5)CC4)cc3)ccc2Cl)c1` [Compound 14, N-(3-((3-chloro-6-((4-(4-(cyclopropylmethyl)piperazin-1-yl)phenyl)amino)pyridin-2-yl)oxy)phenyl)acrylamide]: the IC50 lay in the range of 0.3 to 30 µM.

Regarding `C=CC(=O)Nc1cc(Oc2nc(Nc3ccc(N4CCN(C)CC4)cc3OC)ccc2N2CCCC2)ccc1C(F)(F)F` [Compound 44, N-(5-((6-((2-methoxy-4-(4-methylpiperazin-1-yl)phenyl)amino)-3-(pyrrolidin-1-yl)pyridin-2-yl)oxy)-2-(trifluoromethyl)phenyl)acrylamide], the IC50 was 0.003 to 0.3 µM.

With `C=CC(=O)Nc1cc(Oc2nc(Nc3ccc(N4CCC(N(C)C)CC4)cc3OC)ccc2N2CCCCC2)ccc1C` [Compound 37, N-(5-((6-((4-(4-(dimethylamino)piperidin-1-yl)-2-methoxyphenyl)amino)-3-(piperidin-1-yl)pyridin-2-yl)oxy)-2-methylphenyl)acrylamide], the IC50 is 0.003 to 0.3 µM.

With `C=C(F)C(=O)Nc1cc(Oc2nc(Nc3ccc(N4CCN(C)CC4)cc3OC)ccc2N2CCCCC2)ccc1C` [Compound 49, 2-fluoro-N-(5-((6-((2-methoxy-4-(4-methylpiperazin-1-yl)phenyl)amino)-3-(piperidin-1-yl)pyridin-2-yl)oxy)-2-methylphenyl)acrylamide], the IC50 lay within 0.3 to 30 µM.

As to `C=CC(=O)Nc1cc(Oc2nc(Nc3ccc(N4CCN(C)CC4)cc3OC)ccc2N2CCCC2)ccc1OC` [Compound 39, N-(2-methoxy-5-((6-((2-methoxy-4-(4-methylpiperazin-1-yl)phenyl)amino)-3-(pyrrolidin-1-yl)pyridin-2-yl)oxy)phenyl)acrylamide], the IC50 is 0.003 to 0.3 µM.

As to `C=CC(=O)Nc1cccc(Oc2nc(N(C)c3ccc(N4CCNCC4)cc3)ccc2Cl)c1` [Compound 26], the IC50 was in the range of 0.3 to 30 µM.

Take `C=CC(=O)Nc1cccc(Oc2nc(Nc3ccc(N4CCOCC4)cc3)ccc2Cl)c1` [Compound 2, N-(3-((3-chloro-6-((4-morpholinophenyl)amino)pyridin-2-yl)oxy)phenyl)acrylamide]: the IC50 was in the range of 0.3 to 30 µM.

As to `C=CC(=O)Nc1cccc(Oc2nc(Nc3ccccc3)ccc2Cl)c1` [Compound 3, N-(3-((3-chloro-6-(phenylamino)pyridin-2-yl)oxy)phenyl)acrylamide], the IC50 fell in the range of 0.3 to 30 µM.

Turning to `C=CC(=O)Nc1cc(Oc2nc(Nc3ccc(N4CCN(C)CC4)cc3OC)ccc2N2CCCCC2)ccc1C(F)(F)F` [Compound 45], the IC50 is 0.003 to 0.3 µM.

For `C#CC(=O)Nc1cccc(Oc2nc(Nc3ccc(N4CCN(C)CC4)cc3OC)ccc2Cl)c1` [Compound 13, N-(3-((3-chloro-6-((2-methoxy-4-(4-methylpiperazin-1-yl)phenyl)amino)pyridin-2-yl)oxy)phenyl)propiolamide], the IC50 was 0.3 to 30 µM.

As to `C=CC(=O)Nc1cc(Oc2nc(Nc3ccc(N4CCN(C)CC4)nc3OC)ccc2N2CCCCC2)ccc1C` [Compound 35, N-(5-((6-((2-methoxy-6-(4-methylpiperazin-1-yl)pyridin-3-yl)amino)-3-(piperidin-1-yl)pyridin-2-yl)oxy)-2-methylphenyl)acrylamide], the IC50 was 0.003 to 0.3 µM.

As to `C=CC(=O)Nc1cccc(Oc2nc(Nc3ccc(N4CCN(C)CC4)cc3OC)ccc2N2CCCC2)c1` [Compound 20, N-(3-((6-((2-methoxy-4-(4-methylpiperazin-1-yl)phenyl)amino)-3-(pyrrolidin-1-yl)pyridin-2-yl)oxy)phenyl)acrylamide], the IC50 is 0.003 to 0.3 µM.

Consider `C=CC(=O)Nc1cccc(Nc2nc(Nc3ccc(N4CCN(C)CC4)cc3OC)ccc2Cl)c1` [Compound 19, N-(3-((3-chloro-6-((2-methoxy-4-(4-methylpiperazin-1-yl)phenyl)amino)pyridin-2-yl)amino)phenyl)acrylamide], for which the IC50 was in the range of 0.3 to 30 µM.

For `C=CC(=O)Nc1cccc(Oc2nc(Nc3ccc(N4CCN(C)CC4)cc3)ccc2Cl)c1` [Compound 4, N-(3-((3-chloro-6-((4-(4-methylpiperazin-1-yl)phenyl)amino)pyridin-2-yl)oxy)phenyl)acrylamide], the IC50 lay within 0.3 to 30 µM.

As to `C=CC(=O)Nc1cccc(Oc2nc(Nc3ccc(N4CCN(C)CC4)cc3OC)ccc2Cl)c1` [Compound 1, N-(3-((3-chloro-6-((2-methoxy-4-(4-methylpiperazin-1-yl)phenyl)amino)pyridin-2-yl)oxy)phenyl)acrylamide], the IC50 is 0.3 to 30 µM.

For the compound `C=CC(=O)Nc1cccc(Oc2cccc(Nc3ccc(N4CCN(C)CC4)cc3OC)n2)c1` [Compound 21, N-(3-((6-((2-methoxy-4-(4-methylpiperazin-1-yl)phenyl)amino)pyridin-2-yl)oxy)phenyl)acrylamide], the IC50 was 0.3 to 30 µM.

Consider `C=CC(=O)Nc1cccc(Oc2nc(N(Cc3ccccc3)c3ccc(N4CCNCC4)cc3)ccc2Cl)c1` [Compound 27, N-(3-((6-(benzyl(4-(piperazin-1-yl)phenyl)amino)-3-chloropyridin-2-yl)oxy)phenyl)acrylamide], for which the IC50 was in the range of 0.3 to 30 µM.
